According to patent US20140179681A1, “METHODS AND COMPOSITIONS OF TARGETED DRUG DEVELOPMENT” (priority 2010, published 2014):
Read-outs that look alike come from different tables or passages of the source.

Assays:
[1] = test system: epithelial carcinoma A431 cell line; test: MTT Cell Proliferation Assay, A431 cells; format: cell-based; conditions: for IC50: Homo sapiens, A-431, Table 11
Outline: (§1)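 Each concentration ran in quadruplicate across duplicate plates, with compounds serially diluted in DMSO and delivered at 0.5% DMSO in 0.5% FBS medium for 3 days.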

MDBK line = test: MTT Cell Proliferation Assay, MDBK cells; format: cell-based, bovine; conditions: for IC50: Bos taurus, MDBK, Table 11, second of x/y(ratio): MDBK
Outline: as §1

[2] = standard at 23.5 μM final concentration
[3] = standard at 31.125 μM final concentration

| SMILES | IC50 ([1]; first of x/y(ratio): A431, unit inferred, read-out: MTT Follow-up (first value)) [µM] | IC50 ([1]; first of x/y(ratio): A431, unit not printed (doses in μM), read-out: MTT Screen (first value)) [µM] | activity in A431 [1, 2] | activity in A431 [1, 3] [%] | IC50 (MDBK line; unit inferred, read-out: MTT Follow-up (second value)) [µM] | IC50 (MDBK line; unit not printed (doses in μM), read-out: MTT Screen (second value)) [µM] | activity in MDBK cells (MDBK line; [2]) | activity in MDBK cells (MDBK line; [3]) | MTT assay (first value) ([1]; Table 10, first of x/y(ratio): A431, three day treatment, unit not printed (doses in μM)) |
| --- | --- | --- | --- | --- | --- | --- | --- | --- | --- |
| CCc1cc2c(CN3CCN(Cc4ccc5c(c4)OCO5)CC3)cc(=O)oc2cc1O [AD4-1734] | 22.1 | 22.8 | less than 100% | 100 | 40.2 | 42.5 | 0 | less than 50% | – |
| Cc1cc(C)cc(NS(=O)(=O)c2ccc(NC(=S)Nc3ccccc3)cc2)c1 [AD4-11091] | – | – | – | – | – | – | – | – | non-convergent |
